Reference: US20240208998A1, “COMPOUNDS FOR USE IN THE TREATMENT OF HYPERPROLIFERATIVE DISORDERS” (FUNDACIÓ PRIVADA INSTITUT D'INVESTIGACIÓ ONCOLÓGICA DE VALL …, priority 2021, published 2024)

Columns and labels:
human TET2 construct = human TET2 construct (Homo sapiens, UniProt Q6N021, A1837G/A1840G/D1704G/D1842G/DEL1471-1702/DEL1708-1833/E1841G/F1706G/N1843S/Q1834G/V1836G); assay: Determination of TET2 binding by Surface Plasmon Resonance; settings: SPR, Biacore T200, 25° C., steady state fit to single site interaction model
Protocol: The human methylcytosine dioxygenase TET2 construct used (1129-2002 with residues 1471-1843 replaced by a 15-residue GS-linker) was expressed in a pET-28a(+)psumo vector with kanamycin resistance and an N-terminal His6 tag, and cloned in Rosetta D3 Escherichia coli competent cells. Transformed cells were cultured overnight in 10 mL of LB media supplied with kanamycin (50 μg/mL), then scaled to 1 L LB medium supplied with kanamycin (50 μg/mL) and grown at 37° C. Once the optical density (OD600) achieved 0.8, protein expression was induced with 0.4 mM isopropyl-β-thiogalactopyranoside (IPTG) overnight at 18° C. Cells were harvested by centrifugation (8,000 rpm, 4° C., 30 min) and the pellet obtained was resuspended in 15 mL of buffer A (50 mM Hepes, 150 mM NaCl, 30 mM imidazole, 2 mM β-mercaptoethanol (pH 8.0) supplemented with Pierce protease inhibitor cocktail (ThermoFisher Scientific)) and lysed by sonication (1 min 40 s: 10 cycles×10 s ON, 30 s OFF, A=35%, T=19° C.) followed by two consecutive centrifugations (8,000 rpm, 4° C., 30 min) to clarify the lysate.
The TET2 protein was purified using an AKTA Start system (GE Healthcare, Uppsala, Sweden) by two-step purification procedure: one His-affinity chromatography followed by a size exclusion chromatography. First, the protein fraction obtained during the lysis (supernatant) was applied to a 5 mL HisTrap HP column (GE Healthcare), washed with buffer A (50 mM Hepes, 150 mM NaCl, 30 mM imidazole, 2 mM […] (pH 8.0)) and the bound protein was eluted with buffer B (50 mM Hepes, 150 mM NaCl, 250 mM imidazole, 2 mM β-mercaptoethanol (pH 8.0)). The eluted protein-containing fractions were pooled and concentrated up to 4 mL for the last purification step: a size exclusion chromatography (HiPrep 16/60 Sephacryl S-100 HR) in 50 mM Hepes, 150 mM NaCl, 2 mM β-mercaptoethanol (pH 8.0). Finally, the mass and purity of the protein were verified by SDS-electrophoresis and mass spectrometry.
The binding of compounds of the examples was determined by Surface Plasmon Resonance (SPR) using a Biacore T200 SPR biosensor instrument (GE Healthcare, Uppsala, Sweden) at 25° C. The human TET2 construct was immobilized on a CM5 sensor chip using a standard covalent immobilization via amine coupling following the activation of the carboxymethyl dextran matrix of the sensor chip (injection of a solution containing 0.1 M N-hydroxysuccinimide and 0.4 M 1-ethyl-3-[3-(dimethylamino)propyl]carbodiimide hydrochloride at a flow rate of 15 μL/min for 7 min). The protein immobilization was achieved after the injection of 5 μg/mL TET2 in 10 mM sodium acetate (pH 4.0) at a flow rate of 5 μL/min. Unreacted activated groups of the dextran matrix were deactivated by injection of 1 M ethanolamine hydrochloride for 7 min at a flow rate of 15 μL/min. The corresponding matrix activation and protein immobilization were performed using as a running buffer a phosphate buffered saline solution (1.05× PBS: 10 mM phosphate, pH 7.4, 150 mM NaCl). The screened compounds were prepared in a 20 mM stock solution in DMSO and diluted with 1.05× PBS to achieve a final 5% (v/v) DMSO concentration. The running buffer of the interaction assays consisted of 1×PBS, 5% (v/v) DMSO. The flow rate used for the screening was 60 μL/min and the ligand association and dissociation times set were 60 s and 120 s, respectively.
For data analysis the software used was the Biacore T200 Evaluation software. Different corrections were applied. First, the nonspecific binding to the chip surface and the baseline drift were corrected subtracting the signals of a reference surface (where the immobilization procedure was carried out without proteins) to the signals obtained on the TET2 surface. Second, a series of solvent standards (solvent correction) were introduced to remove the differences derived from the DMSO. Finally, the background was corrected subtracting blank injections (blank subtraction) to the injected compound signals.

HL60 cell line = assay: Antiproliferative activity on HL60 cell line (CellTiter-Glo); assay type: cell-based; settings: Homo sapiens, HL-60; HL60, 72 h of treatment
Protocol: The human leukaemic cell line HL60 was grown in suspension in RPMI 1640 medium containing 10% (v/v) FBS and 1% (v/v) P/S (Life Technologies). […] Leukaemia cells were suspended at a density of 2×10^5 cells/mL in complete RPMI 1640 medium and 25 μL were seeded in each well (5×10^3 final total cells/well). A 10 μM solution of the compounds of examples 1, 12 and 21, and a 25 μM solution of all other compounds were prepared in complete medium, and then serially diluted (1:2) (as specified in Table 3 below). A solution of complete medium with DMSO was used as a vehicle control.
Twenty-five microliters of each serially diluted compound solution were added to the corresponding wells of the plate (50 μL of final volume/well). After 48 h of treatment, 50 μL of fresh 2X serially diluted compound solution was added to their corresponding wells (100 μL of final volume/well). After twenty-four additional hours, an equal volume (100 μL) of CellTiter-Glo Reagent (Promega) was added to each well, plates were shaken during 2 min and incubated at rt for 10 min. Luminescence was recorded using a Spark multimode microplate reader and an integration time of 1 s per well.

melting point [°C]	Kd (human TET2 construct) [µM]	EC50 (HL60 cell line) [µM]	SMILES
160 to 163	15	4.3	Cc1[nH]c2ccccc2c1-c1csc(NC(=O)Cc2csc3nccn23)n1 [Example 2, 2-(imidazo[2,1-b]thiazol-3-yl)-N-[4-(2-methyl-1H-indol-3-yl)thiazol-2-yl]acetamide]
239 to 242	16	1.3	Cc1[nH]c2ccccc2c1-c1csc(NC(=O)Cc2nc3ccccc3o2)n1 [Example 3, 2-(benzo[d]oxazol-2-yl)-N-[4-(2-methyl-1H-indol-3-yl)thiazol-2-yl]acetamide]
122 to 124	21	12.1	Cc1[nH]c2ccccc2c1-c1coc(NC(=O)Cc2cn3ccsc3n2)n1 [Example 5, 2-(imidazo[2,1-b]thiazol-6-yl)-N-[4-(2-methyl-1H-indol-3-yl)oxazol-2-yl]acetamide]
127 to 129	5	3.4	COc1ccc2[nH]cc(CC(=O)Nc3nc(-c4c(C)[nH]c5ccccc45)cs3)c2c1 [Example 6, 2-(5-methoxy-1H-indol-3-yl)-N-[4-(2-methyl-1H-indol-3-yl)thiazol-2-yl]acetamide]
166 to 168	5	9.3	Cc1[nH]c2ccccc2c1-c1csc(NC(=O)Cc2cc3ccccc3[nH]2)n1 [Example 7, 2-(1H-indol-2-yl)-N-[4-(2-methyl-1H-indol-3-yl)thiazol-2-yl]acetamide]
114 to 119	10	0.072	Cc1[nH]c2ccccc2c1-c1csc(NC(=O)Cc2cn3cc(F)ccc3n2)n1 [Example 8, 2-(6-fluoroimidazo[1,2-a]pyridin-2-yl)-N-[4-(2-methyl-1H-indol-3-yl)thiazol-2-yl]acetamide]
140 to 142	9		Cc1cn2cc(CC(=O)Nc3nc(-c4c(C)[nH]c5ccccc45)cs3)nc2s1 [Example 9, N-[4-(2-methyl-1H-indol-3-yl)thiazol-2-yl]-2-(2-methylimidazo[2,1-b]thiazol-6-yl)acetamide]
145 to 148	11	3.3	Cc1[nH]c2ccccc2c1-c1csc(NC(=O)Cc2cn3c(C)csc3n2)n1 [Example 10, N-[4-(2-methyl-1H-indol-3-yl)thiazol-2-yl]-2-(3-methylimidazo[2,1-b]thiazol-6-yl)acetamide]
139 to 142	2	2.2	Cc1[nH]c2ccccc2c1-c1csc(NC(=O)Cc2cn(C)c3ccccc23)n1 [Example 11, 2-(1-methyl-1H-indol-3-yl)-N-[4-(2-methyl-1H-indol-3-yl)thiazol-2-yl]acetamide]
133 to 135	14	13.4	Cc1[nH]c2ccccc2c1-c1csc(NC(=O)CCc2c[nH]c3ccccc23)n1 [Example 14, 3-(1H-indol-3-yl)-N-[4-(2-methyl-1H-indol-3-yl)thiazol-2-yl]propanamide]
85 to 88	11	20.2	Cc1[nH]c2ccccc2c1-c1csc(N(C)C(=O)C(C)c2cn3ccsc3n2)n1 (stereo not drawn) [Example 15, 2-(imidazo[2,1-b]thiazol-6-yl)-N-methyl-N-[4-(2-methyl-1H-indol-3-yl)thiazol-2-yl]propanamide]
175 to 177	7		Cc1[nH]c2ccccc2c1-c1csc(NC(=O)Cc2c[nH]c3cc(Cl)ccc23)n1 [Example 16, 2-(6-chloro-1H-indol-3-yl)-N-[4-(2-methyl-1H-indol-3-yl)thiazol-2-yl]acetamide]
107 to 112	11	4.9	Cc1[nH]c2ccccc2c1-c1csc(NC(=O)Cc2c[nH]cn2)n1 [Example 17, 2-(1H-imidazol-4-yl)-N-[4-(2-methyl-1H-indol-3-yl)thiazol-2-yl]acetamide]
198 to 200	5	7.5	Cc1[nH]c2ccccc2c1-c1csc(NC(=O)Cc2cc3ccccc3o2)n1 [Example 18, 2-(benzofuran-2-yl)-N-[4-(2-methyl-1H-indol-3-yl)thiazol-2-yl]acetamide]
233 to 235	5		Cc1[nH]c2ccccc2c1-c1csc(NC(=O)Cc2sc3ccccc3c2C)n1 [Example 20, N-[4-(2-methyl-1H-indol-3-yl)thiazol-2-yl]-2-(3-methylbenzo[b]thiophen-2-yl)acetamide]
233 to 235	2	0.266	O=C(Cc1cn2ccsc2n1)Nc1nc(-c2c[nH]c3cccc(Br)c23)cs1 [Example 22, N-[4-(4-bromo-1H-indol-3-yl)thiazol-2-yl]-2-(imidazo[2,1-b]thiazol-6-yl)acetamide]
232 to 234	15		O=C(Cc1cn2ccsc2n1)Nc1nc(-c2c[nH]c3ccc([N+](=O)[O-])cc23)cs1 [Example 23, 2-(imidazo[2,1-b]thiazol-6-yl)-N-[4-(5-nitro-1H-indol-3-yl)thiazol-2-yl]acetamide]
143 to 144	13		COc1ccc2[nH]c(C)c(-c3csc(NC(=O)Cc4cn5ccsc5n4)n3)c2c1 [Example 25, 2-(imidazo[2,1-b]thiazol-6-yl)-N-[4-(5-methoxy-2-methyl-1H-indol-3-yl)thiazol-2-yl]acetamide]
157 to 158	16		Cc1[nH]c2cc(F)ccc2c1-c1csc(NC(=O)Cc2cn3ccsc3n2)n1 [Example 26, N-[4-(6-fluoro-2-methyl-1H-indol-3-yl)thiazol-2-yl]-2-(imidazo[2,1-b]thiazol-6-yl)acetamide]
150 to 151			Cc1[nH]c2ccc([N+](=O)[O-])cc2c1-c1csc(NC(=O)Cc2cn3ccsc3n2)n1 [Example 27, 2-(imidazo[2,1-b]thiazol-6-yl)-N-[4-(2-methyl-5-nitro-1H-indol-3-yl)thiazol-2-yl]acetamide]
125 to 126	67		Cc1[nH]c2ccc(N)cc2c1-c1csc(NC(=O)Cc2cn3ccsc3n2)n1 [Example 28, N-[4-(5-amino-2-methyl-1H-indol-3-yl)thiazol-2-yl]-2-(imidazo[2,1-b]thiazol-6-yl)acetamide]
